Measured values published in US6790855B2 (priority 2000, dated 2004).
Where a name gives a salt, the structure may show the parent alone.

Legend:
[1] = system: mice; experiment: radiant heat tailflick assay after topical administration (tail immersed in DMSO drug solution); format: in vivo; conditions: for Opioid ED50 Value: opioid alone or opioid component of fixed-ratio combination; for response reached in dose-response curve: tested immediately; for response reached in dose-response curve / analgesic activity in words: FIG. 2; for analgesic response: constant concentration, FIG. 1a; for analgesic activity in words: dose-response; for peak response: fixed low dose: morphine 1.5 mM, lidocaine 0.9 mM, alone or both together, FIG. 3a
[2] = system: subject's finger; experiment: radiant light heat source finger latency after topical gel application; format: in vivo, human; conditions: Lidocaine alone 0.125 mg/ml or morphine alone 0.25 mg/ml gel, FIG. 7
[3] = as an analgesic and as a respiratory depressant; cited from earlier work
[4] = topical, increasing concentrations, 2 minutes, FIG. 4
[5] = 2 minutes exposure, listed as free base of lidocaine

## CN1CC[C@]23CCCC[C@H]2[C@H]1Cc1ccc(O)cc13 [Levorphanol]
[1]; [4]
  ED50: 5000 µM
  analgesic response in words: full analgesic responses
[1]; topical, tailflick
  Opioid ED50 Value: 5000 µM

## CCN(CC)CC(=O)Nc1c(C)cccc1C [Lidocaine]
[1]; [5]
  response reached in dose-response curve: 75%
  analgesic activity in words: biphasic dose-response curve
[1]; 2 minutes exposure, time action curve over 30 minutes, FIG. 1b
  time of decrease to baseline levels: ≤ 20 min
[1]; exposure 30 seconds
  analgesic response: 20%
[1]; exposure 2 minutes
  analgesic response: 70%
[1]
  peak response: 20%
[1]; lidocaine ED50, + morphine 3.0 mM vs alone
  Shift: 3.1
[1]; lidocaine ED50, + morphine 4.5 mM vs alone
  Shift: 3.6
[1]; mouse, in vivo
  Shift: 2.5
[1]; topical lidocaine + morphine 1.5 mM
  ED50: 1000 µM
[1]; topical lidocaine + morphine 3.0 mM
  ED50: 800 µM
[1]; topical lidocaine + morphine 4.5 mM
  ED50: 700 µM
[1]; topical, drug alone
  ED50: 2500 µM
[1]; topical, tailflick, lidocaine alone (initial portion of curve) or lidocaine component of fixed-ratio combination
  Lidocaine ED50 Value: 2500 µM
[2]
  change in latency compared to baseline, in words: Neither morphine nor Lidocaine produced appreciable changes in latency

## CN1CC[C@]23c4c5ccc(O)c4O[C@H]2[C@@H](O)C=C[C@H]3[C@H]1C5 [Morphine]
[1]; 2 minutes exposure
  analgesic activity in words: intermediate potency between the two forms of lidocaine
[1]
  peak response: 20%
[1]; morphine ED50, + lidocaine 0.45 mM vs alone
  Shift: 1.7
[1]; morphine ED50, + lidocaine 0.9 mM vs alone
  Shift: 4.1
[1]; morphine ED50, + lidocaine 1.8 mM vs alone
  Shift: 4.7
[1]; topical morphine + lidocaine 0.45 mM
  ED50: 3600 µM
[1]; topical morphine + lidocaine 0.9 mM
  ED50: 1500 µM
[1]; topical morphine + lidocaine 1.8 mM
  ED50: 1300 µM
[1]; topical, drug alone
  ED50: 6100 µM
[1]; topical, tailflick
  Opioid ED50 Value: 6100 µM
[2]
  change in latency compared to baseline, in words: Neither morphine nor Lidocaine produced appreciable changes in latency

## COc1ccc2c3c1O[C@H]1[C@@H](O)C=C[C@H]4[C@@H](C2)N(C)CC[C@@]341 [codeine]
[3]
  effectiveness orally relative to parenterally: approximately 60%

## CCN(CC)CC(=O)Nc1c(C)cccc1C [Lidocaine HCl]
[1]; 2 minutes exposure, HCl
  response reached in dose-response curve: 50-60%
  analgesic activity in words: less effective
